Source: ChEMBL document CHEMBL1134676, “Synthesis and activity of novel and selective I(Ks)-channel blockers” (J Med Chem, 2001)

Target: T1, Voltage-gated potassium channel, IKs; KCNQ1(Kv7.1)/KCNE1(MinK) (Homo sapiens, UniProt P15382+P51787)
Assay: Inhibition of human IKs-channel expressed in Xenopus oocytes,(Experiment 1)
Type: cell-based, Oocyte

T1 sequence (P51787 whole entry): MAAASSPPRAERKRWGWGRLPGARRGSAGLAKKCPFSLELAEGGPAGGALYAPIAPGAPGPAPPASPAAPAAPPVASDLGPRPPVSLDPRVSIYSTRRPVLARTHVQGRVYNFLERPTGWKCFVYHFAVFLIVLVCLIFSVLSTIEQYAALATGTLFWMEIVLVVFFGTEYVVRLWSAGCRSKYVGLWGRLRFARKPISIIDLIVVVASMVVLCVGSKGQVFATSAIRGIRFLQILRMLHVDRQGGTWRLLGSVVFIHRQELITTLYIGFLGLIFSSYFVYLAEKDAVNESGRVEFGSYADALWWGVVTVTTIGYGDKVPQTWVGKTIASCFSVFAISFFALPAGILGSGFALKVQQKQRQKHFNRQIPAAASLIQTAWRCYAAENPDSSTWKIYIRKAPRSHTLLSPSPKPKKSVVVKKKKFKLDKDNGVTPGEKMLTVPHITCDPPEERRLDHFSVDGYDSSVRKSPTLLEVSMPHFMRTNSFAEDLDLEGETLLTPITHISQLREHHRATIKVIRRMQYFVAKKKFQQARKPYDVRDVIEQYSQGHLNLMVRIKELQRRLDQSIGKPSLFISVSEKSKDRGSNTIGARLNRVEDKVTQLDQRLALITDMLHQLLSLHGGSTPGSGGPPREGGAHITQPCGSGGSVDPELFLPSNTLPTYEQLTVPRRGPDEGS

Structure (SMILES)	IC50
CCS(=O)(=O)N(C)[C@H]1c2cc(C#N)ccc2OC(C)(C)[C@@H]1O	5000 nM
CCS(=O)(=O)N(C)[C@@H]1c2cc(C#N)ccc2OC(C)(C)[C@H]1O	44500 nM

Target: T1, Voltage-gated potassium channel, IKs; KCNQ1(Kv7.1)/KCNE1(MinK)
Assay: Inhibition of human IKs-channel expressed in Xenopus oocytes
Type: cell-based, Oocyte

Structure (SMILES)	IC50
CCS(=O)(=O)N(C)[C@@H]1c2cc(OCc3ccccc3)ccc2OC(C)(C)[C@H]1O	400 nM
CCCCS(=O)(=O)N(C)C1c2cc(C#N)ccc2OC(C)(C)C1O (configuration not stated)	58000 nM
CN(C1c2cc(Cl)ccc2OC(C)(C)C1O)S(C)(=O)=O (configuration not stated)	1100 nM
CCS(=O)(=O)N(C)C1c2cc(C#N)ccc2OC(C)(C)C1O (configuration not stated)	6900 nM
CCS(=O)(=O)N(C)C1c2cc(F)ccc2OC(C)(C)C1O (configuration not stated)	1200 nM
CCS(=O)(=O)N(C)[C@H]1c2cc(OCc3ccccc3)ccc2OC(C)(C)[C@@H]1O	50 nM
CCS(=O)(=O)N(C)[C@@H]1c2cc(F)ccc2OC(C)(C)[C@H]1O	2200 nM
CCCCOc1ccc2c(c1)C(N(C)S(C)(=O)=O)C(O)C(C)(C)O2 (configuration not stated)	250 nM
CN(C1c2cc(OCc3ccccc3)ccc2OC(C)(C)C1O)S(C)(=O)=O (configuration not stated)	200 nM
CCS(=O)(=O)N(C)C1c2ccccc2OC(C)(C)C1O (configuration not stated)	3100 nM
